According to US20110300147A9, “Inhibiting tumor cell invasion, metastasis and angiogenesis” (The Scripps Research institute, priority 2005, published 2011):
Peptide text beside a SMILES is read from it. * marks the point of attachment. Doxorubicin(3'-N) = COc1cccc2c1C(=O)c1c(O)c3c(c(O)c1C2=O)C[C@@](O)(C(=O)CO)C[C@@H]3O[C@H]1C[C@H](N*)[C@H](O)[C@H](C)O1; Boc = CC(C)(C)OC(=O)*

Columns and labels:
[1] = test system: legumain+ 293 cells; experiment: modified Boyden chamber invasion assay; assay type: cell-based, human
Procedure: (§1) Cell invasion and mobility assays. Cell migration and invasion assays were performed as described with modifications (Albini et al., 1987). Stock solutions (15 mg/ml) of Matrigel basement membrane matrix (Becton Dickinson, Bedford, Mass.) were stored at −80° C. in 100 μl aliquots. After thawing on ice, the stock was diluted 1:50 with cold serum-free culture media and immediately applied to each membrane insert (8 μm pore) that formed the upper chambers of the multi-well invasion assay plate. The Matrigel was incubated overnight in a sterile laminar tissue culture hood. The membranes were hydrated for 2 hours with 250 μl of serum-free medium and excess medium was removed by aspiration. Medium containing 10% FBS was added to the bottom of each well. A suspension of 10^5 cells in 150 μl of serum-free medium was added to the upper chamber and incubated for 12 hours at 37° C., 5% CO2. At the indicated times, the membrane inserts were removed from the plate and the non-invading cells were removed from the upper surface. Membrane associated cells were stained with 0.09% crystal violet for 30 minutes and washed twice with PBS. The invading cells were counted microscopically. Cell mobility assays were performed in a similar manner except the membrane inserts were not coated with Matrigel, and duration was shortened. […]

[2] = test system: cancer cells; experiment: chemo-sensitizing cytotoxic assay, TNF-α plus legumain inhibitor; assay type: cell-based; conditions: compared among AEPI-1 to AEPI-5
Procedure: Chemo-sensitizing Cytotoxic Assay. Cancer cells were prepared for the assay as follows. The cells were centrifuged at 800 rpm for 10 minutes, resuspended in DMEM to a density of 1.0×10^5 cells/ml. Approximately 5 ml of cells were used per assay plate. Cells (100 ul) were added to a 96-well flat bottom plate (10,000 cells/well, all the inner wells) and 100 ul of media was added to the outer wells. The plates were incubated at 37° C. overnight. AEPI dilutions were prepared using a 96 well round bottom plate and medium as the diluent. After overnight incubation, the media was removed from the cancer cell assay plate, and the selected AEPI was added at the selected dilution or concentration. An additional 200 ul of media was added to the outer wells. Plates were incubated overnight at 37° C. XTT reagent (or other cell viability reagent) was prepared in phenol red free media. The media was removed from cells and 200 ul of fresh media containing the XTT reagent was added to all wells. The plates were incubated for 30 min to 4 hrs and cell viability was determined by reading the plates according to manufacturer specifications.

[3] = molecular target: T1, legumain in MDA MB231 breast cancer cells (Homo sapiens, UniProt Q99538); experiment: AEPI inhibitory assay, intracellular legumain activity; assay type: cell-based
T1 construct: endogenous in cells; host or cells: MDA-MB-231 human breast cancer cells
Procedure: AEPI Inhibitory Assay. Cancer cells were centrifuged at 800 rpm for 10 minutes and resuspended in DMEM to a density of 1.0×10^5 cells/ml. Approximately 5 ml of cells is used per assay plate. Cells (100 ul) were added to a 96-well plat bottom plate (10,000 cells/well, all the inner wells) and 100 ul of media was added to the outer wells. The cells were incubated at 37° C. overnight. The inhibitor compounds were diluted in a 96 well round bottom plate and the old media was removed from the cancer cell assay plate. The inhibitor (100 ul) was added to the cell assay plate and 200 ul of media was added to the outer wells. One to three days after the cancer cells were exposed to the inhibitor, the AEP activity was assessed as follows. Cells were detached with Trypsin-free cell-cell detachment media and transfer to Eppendorf tubes. Cells were then disrupted and the AEPI substrate was added to the cell lysate. This assay mixture was then incubated for an appropriate period of time and the amount of activated substrate was measured with fluorometer.

[4] = test system: legumain-expressing 293 (293L) cells; experiment: TNF-α induced cell death with or without AEPI-5; assay type: cell-based, human; conditions: with or without AEPI-5, function of TNF-α concentration
[5] = test system: legumain-expressing 293 (293L) cells; experiment: UV-induced apoptosis of legumain-expressing 293 cells; assay type: cell-based, human; conditions: dead cells after UV treatment as a function of AEPI-5 concentration
[6] = test system: legumain-promoted cancer cell invasion; experiment: cancer cell invasion assay with recombinant legumain protein; assay type: cell-based; conditions: recombinant legumain protein added
Procedure: as §1

[7] = test system: legumain+ 293 cells; experiment: in vitro migration assay; assay type: cell-based, human
Procedure: as §1

[8] = molecular target: T2, cell surface bound legumain (Homo sapiens, UniProt Q99538); experiment: gelatin zymogram, activation of progelatinase A by cells expressing legumain; assay type: cell-based; conditions: zymogen incubated with cells 10 minutes
T2 construct: expressed in transfected cells; host or cells: 293 cells stably expressing human legumain (legumain+ 293)
Procedure: Zymogram. Control 293 cells and legumain+ 293 cells were plated into 96 wells plates at a cell density of 4,000 cells/well. The cells were allowed to attach overnight, then were serum starved for four hours. Zymogen forms of metalloproteinase 2 or 9 (Chemicon, Temecula, Calif.) were added at concentration of 0.1 μg/well with 50 μl reaction buffer (39.5 mM citric acid, 121 mM Na2HPO4, pH 5.8, 1 mM EDTA, and 0.8% […]) and the reactions were continued for 10 minutes. The reactants were collected and mixed with an equal volume of SDS sample buffer and held at room temperature for 10 minutes then applied to a zymogram gel (10% Tris-Glycine gel with 0.1% gelatin substrate). After electrophoresis, the gel was washed briefly and incubated with 2.5% (v/v) Triton X-100 at room temperature for 30 minutes with gentle agitation. Digestion of the incorporated gelatin by activated collagenase was conducted in buffer ([…], pH 7.25, 200 mM NaCl, […], 0.05% Brij-35, 0.02% NaN3) overnight. The gel was stained with Coomassie Blue R250 (Novex, San Diego, Calif.) and the presence of a protease was readily observed as a clear band.
Activation of progelatinase A by legumain. […] Zymogen forms of gelatinase A and B were incubated with the cells for 10 minutes, and the reaction products were analyzed by zymography. […] Moreover, no effect of legumain on zymogen gelatinase B was detected.

[9] = test system: legumain+ 293 cells; experiment: WST-1 cytotoxicity assay, legumain+ 293 cells; conditions: 48 h
Procedure: (§2) Cytotoxic assays. The WST-1 cell proliferation reagent (Roche Molecular Chemicals, Germany) was used to determine cell proliferation by quantification of cellular metabolic activity. Control 293 cells and legumain+ 293 cells were cultivated in microtiter plates (5×10^3 cells per well in 100 μl) and were incubated with serial concentrations of legubicin or doxorubicin for 48 h. Subsequently, 10 μl of WST-1 solution (1 mg/ml WST-1, 25 μM -methyldibenzopyrazine methyl sulfate) was added per well, and mixtures were incubated for an additional 4 h. The tetrazolium salt WST-1 (4-[3-(4-lodophenyl)-2-(4-nitrophenyl)-2H-5-tetrazolio-1,3-benzene disfonate) was cleaved by the mitochondrial succinate-tetrazolium-reductase system to formazan in cells which directly correlates to the number of metabolically viable cells in the culture. The amount of formazan salt was quantified in three replicates by absorbance at 450 nm using a micro-plate reader (Molecular Devices, Palo Alto, Calif.).
(§3) Cytotoxicity assays. The WST-1 cell proliferation reagent (Roche Molecular Chemicals, Germany) was used to determine cell proliferation by quantization of cellular metabolic activity. […] The amount of formazan salt was quantified in three replicates by absorbance at 450 nm using a micro-plate reader (Molecular Devices, Palo Alto, Calif.).

[10] = test system: CT26 murine colon carcinoma; experiment: CT26 syngeneic murine colon carcinoma model; assay type: in vivo, Balb/c mice
Description: Animal models. […] Balb/C mice aged 4 to 6 weeks from the breeding colony were inoculated with 500,000 syngeneic CT26 tumor cells per site subcutaneously in the back. […] Treatment was repeated at 2 day intervals. The human 293 tumor models were generated in WEHI nude mice (The Scripps Research Institute breeding colony). […] Tumor growth and physical signs were monitored daily including any gross evidence of tumor necrosis, local tumor ulceration as well as evidence of toxicity including mobility, response to stimulus, eating, and weight of each animal. These procedures have been reviewed and approved by the Institutional Animal Care and Use Committee at The Scripps Research Institute. The work was conducted in The Scripps Research Institute facilities which are accredited by the Association for the Assessment and Accreditation of Laboratory Animal Care. The Scripps Research Institute maintains an assurance with the Public Health Service, is registered with the United States Department of Agriculture and is in compliance with all regulations relating to animal care and welfare.
Animal models. […] Treatment was three times per week for two weeks.

[11] = test system: control 293 cells; experiment: WST-1 cytotoxicity assay, control 293 cells; conditions: control 293 cells, 48 h
Procedure: as §2, §3

T1 sequence (Q99538 18-323): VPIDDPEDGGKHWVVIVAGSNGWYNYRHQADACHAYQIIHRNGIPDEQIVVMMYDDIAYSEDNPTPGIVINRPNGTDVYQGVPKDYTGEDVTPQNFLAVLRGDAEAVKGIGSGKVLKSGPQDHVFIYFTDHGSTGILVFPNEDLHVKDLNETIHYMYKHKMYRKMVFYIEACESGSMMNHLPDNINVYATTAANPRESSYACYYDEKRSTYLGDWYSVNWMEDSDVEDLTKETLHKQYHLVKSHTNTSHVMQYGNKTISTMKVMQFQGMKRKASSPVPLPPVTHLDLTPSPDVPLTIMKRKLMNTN
T2 sequence (Q99538 18-323): as above

CC(C)C[C@H](NC(=O)[C@H]1O[C@@H]1C(=O)O)C(=O)NCCCCN=C(N)N [E64, reference compound]
increased invasion of extracellular matrix by legumain+ cells [1]: without effect

CCOC(=O)C1OC1C(=O)N(CC(N)=O)NC(=O)C(C)NC(=O)C(C)NC(C)=O [AEPI-5, N-acetyl-Ala-Ala-AzaAsn-(S,S)-EPCOOEt]
cancer cell death on combined treatment with TNF-α [2]: higher levels of cancer cell death | inhibition of legumain activities in MDA MB231 breast cancer cells ([3]; compared among AEPI-1 to AEPI-5): greatest inhibition | cell permeability ([3]; preliminary results): sufficiently cell permeable | TNF-α induced cell death [4]: sensitizes MDA-MB-231 human breast cancer cells to TNF-α induced cell death | UV-induced apoptosis [5]: sensitizes legumain-expressing 293 cells to UV-induced apoptosis

cystatin
legumain-promoted cell invasion [6]: partially inhibited | increased invasion of extracellular matrix by legumain+ cells [1]: inhibited | enhanced migration of legumain+ 293 cells [7]: inhibited | generation of the 62 kDa active gelatinase A by cells expressing legumain [8]: inhibited

COc1cccc2c1C(=O)c1c(O)c3c(c(O)c1C2=O)C[C@@](O)(C(=O)CO)C[C@@H]3O[C@H]1C[C@H](NC(=O)[C@H](CC(C)C)NC(=O)[C@H](CC(N)=O)NC(=O)[C@H](C)NC(=O)[C@H](C)NC(=O)OC(C)(C)C)[C@H](O)[C@H](C)O1 [legubicin, N-(-t-Butoxycarbonyl-L-alanyl-L-alanyl-L-asparaginyl-L-leucyl)doxorubicin] (Boc-AANL-{Doxorubicin(3'-N)})
cytotoxic effect on legumain+ 293 cells [9]: profound cytotoxic effect | toxicity ([10]; i.p. 5 mg/kg three times at 2 day intervals): little evidence of toxicity | injury in organs that express legumain (kidney, liver) ([10]; single injection of 5 mg/kg): no injury was evident | cytotoxic effect relative to that of doxorubicin [11]: less than 1%
